From patent publication US20040013679A1, “LL-37 is an immunostimulant” (priority 2000, published 2004)
Marks after values point to notes of the source that are not given here.

What was measured:
[1] = 10% human AB serum; LL-37 at 10^−5 M; cited from earlier work
mammalian cells = conditions: cited from earlier work
FPRL1 (FPRL1/293 cells) = target: T1, FPRL1 (FPRL1/293 cells) (Homo sapiens, UniProt P25090); experiment: Ca2+ mobilization assay in FPRL1/293 cells; assay type: cell-based; conditions: FIG. 3B
T1 construct: expressed in transfected cells; gift of P. M. Murphy and J. L. Gao (NIAID, NIH)
T1 sequence (P25090 1-351): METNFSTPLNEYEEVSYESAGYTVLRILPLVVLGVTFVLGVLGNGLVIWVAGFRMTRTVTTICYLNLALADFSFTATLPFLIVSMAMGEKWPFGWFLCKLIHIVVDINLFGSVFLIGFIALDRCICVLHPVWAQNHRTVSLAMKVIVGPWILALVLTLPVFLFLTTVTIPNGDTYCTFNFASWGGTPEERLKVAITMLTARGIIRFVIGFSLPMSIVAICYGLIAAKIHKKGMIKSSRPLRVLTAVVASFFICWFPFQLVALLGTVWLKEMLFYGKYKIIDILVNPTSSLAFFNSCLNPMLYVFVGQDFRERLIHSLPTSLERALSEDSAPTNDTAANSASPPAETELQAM
Source text: B. LL-37-induced Ca^2+ flux in FPRL1/293 cells. The arrow indicates the time point where LL-37 was applied to the cells.
Human peripheral blood mononuclear cells (PBMC) were isolated from leukopacks (Courtesy of the Transfusion Medicine Department, NIH Clinic Center, Bethesda, MD) by routine Ficoll-Hypaque density gradient centrifugation. Monocytes were purified from human PBMC with the use of MACS CD14 monocyte isolation kit (Miltenyi Biotech Inc., Auburn, CA) according to the manufacturer's recommendation (12). Neutrophils were purified from the same leukopacks by 3% dextran sedimentation. T cells were purified from PBMC by the use of Human CD4 T Cell Enrichment Columns (R & D Systems, Minneapolis, MN) (12). The purity of neutrophils, monocytes, and T cells by FACScan analysis was more than 95%. […]
Monocytes or FPRL1/293 cells (10^7 cells/ml in RPMI 1640 containing 10% FBS) were loaded by incubating with 5 μM Fura-2 (Molecular Probe) at 24_C for 30 minutes in the dark. […] Each 2 ml of loaded cells suspension was then transferred into a quartz cuvette, which was placed in a luminescence spectrometer LS50 B (Perkin-Elmer Limited, Beaconsfield, U.K). Ca^2+mobilization of the cells in response to chemotactic factors was measured by recording the ratio of fluorescence emitted at 510 nm after sequential excitation at 340 nm and 380 nm.

[2] = target: T2, formyl peptide receptor (ETFR cells) (Homo sapiens, UniProt P21462); experiment: Ca2+ flux in ETFR cells; assay type: cell-based
T2 construct: expressed in transfected cells; provided by H. Ali and R. Snyderman (Duke University)
T2 sequence (P21462 1-350): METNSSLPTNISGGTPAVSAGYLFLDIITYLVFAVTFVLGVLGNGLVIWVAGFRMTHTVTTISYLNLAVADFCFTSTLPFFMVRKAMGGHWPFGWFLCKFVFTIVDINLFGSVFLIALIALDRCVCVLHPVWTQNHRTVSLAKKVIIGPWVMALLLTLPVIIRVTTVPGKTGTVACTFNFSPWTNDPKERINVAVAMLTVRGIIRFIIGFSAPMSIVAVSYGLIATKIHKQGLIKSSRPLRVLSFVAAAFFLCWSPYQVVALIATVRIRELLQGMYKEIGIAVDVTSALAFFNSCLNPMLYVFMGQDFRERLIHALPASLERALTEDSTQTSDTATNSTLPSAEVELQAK

[3] = tested on: human peripheral blood monocytes; experiment: Monocyte chemotaxis assay (48-well microchemotaxis chamber, incl. checkerboard analysis); assay type: cell-based; conditions: for Migrated monocytes (checkerboard analysis): monocytes 1 × 10^6/ml, Mean ± SD of triplicate wells
Method: A. The migration of monocytes (1×10^6 cells/ml) was assessed by chemotaxis assay using 5-μm uncoated membranes. Spontaneous cell migration (without LL-37) was 30-50 cells/HPF. The average C. I. (Mean ±SD) of triplicate wells is shown. *p<0.05 when compared with chemotaxis medium alone (open bar). […]
(§1) Human peripheral blood mononuclear cells (PBMC) were isolated from leukopacks (Courtesy of the Transfusion Medicine Department, NIH Clinic Center, Bethesda, MD) by routine Ficoll-Hypaque density gradient centrifugation. Monocytes were purified from human PBMC with the use of MACS CD14 monocyte isolation kit (Miltenyi Biotech Inc., Auburn, CA) according to the manufacturer's recommendation (12). Neutrophils were purified from the same leukopacks by 3% dextran sedimentation. T cells were purified from PBMC by the use of Human CD4 T Cell Enrichment Columns (R & D Systems, Minneapolis, MN) (12). The purity of neutrophils, monocytes, and T cells by FACScan analysis was more than 95%. Rat basophilic leukemia cells stably transfected with epitope-tagged formyl peptide receptor (ETFR cells) were generously provided by Drs. H. Ali and R. Snyderman (Duke University, Durham, NC), and maintained in the presence of 0.8 mg/ml of geneticin in DMEM supplemented with 10% FBS. Human embryonic kidney cells 293 stably transfected with FPRL1 (designated FPRL1/293 cells thereafter) were a gift of Drs. P. M. Murphy and J. L. Gao (NIAID, NIH, Bethesda, Md) and were maintained in the presence of 2 mg/ml of geneticin in DMEM supplemented with 10% FBS.
(§2) Migration of neutrophils, monocytes, T cells, and HEK293 or transfectant cells in response to chemotactic factors was assessed using a 48-well microchemotaxis chamber technique as previously described (17, 18). Chemotactic factors diluted in chemotaxis medium (CM, RPMI 1640 containing 1% BSA) were placed in the wells of the lower compartment of the chamber (Neuro Probe, Cabin John, […]), and cells suspended in CM were added to the upper compartment. The lower and upper compartments were separated by a polycarbonate membrane (Osmonics, Livermore, Calf.). After incubation at 37_C in humidified air with 5% CO2 for a period of time (60 min for neutrophils, 90 min for monocytes, 180 min for T cells, and 300 min for HEK293, ETFR, and FPRL1/293 cells), the membranes were removed, scraped, stained, and counted. The results are presented as number of cells per high power field (No./HPF) or as chemotactic index (C.I.).

[4] = target: T2, formyl peptide receptor (ETFR cells); experiment: Chemotaxis of ETFR cells; assay type: cell-based; conditions: FIG. 3A
Method: (§3) A. Selective induction of FPRL1/293 cell chemotaxis by LL-37. The migration of parental HEK293 (open bars), FPRL1/293 (dotted bars), or ETFR (closed bars) cells was assessed by chemotaxis assay with the use of collagen-coated 10-μm membranes. Cells were used at a concentration of 1×10^6 cells/ml. The average C. I. (Mean±SD) of triplicate wells is shown. Spontaneous cell migration (without LL-37) was 10-20 cells/HPF. *p<0.05 when compared with chemotaxis medium alone.
(§4) Human peripheral blood mononuclear cells (PBMC) were isolated from leukopacks (Courtesy of the Transfusion Medicine Department, NIH Clinic Center, Bethesda, MD) by routine Ficoll-Hypaque density gradient centrifugation. Monocytes were purified from human PBMC with the use of MACS CD14 monocyte isolation kit (Miltenyi Biotech Inc., Auburn, CA) according to the manufacturer's recommendation (12). […]
(§5) Migration of neutrophils, monocytes, T cells, and HEK293 or transfectant cells in response to chemotactic factors was assessed using a 48-well microchemotaxis chamber technique as previously described (17, 18). […] After incubation at 37_C in humidified air with 5% CO2 for a period of time (60 min for neutrophils, 90 min for monocytes, 180 min for T cells, and 300 min for HEK293, ETFR, and FPRL1/293 cells), the membranes were removed, scraped, stained, and counted. […]

human CD4 T cells = experiment: CD4 T lymphocyte chemotaxis assay; assay type: cell-based
Method: (§6) FIGS. 4A-B show the chemotaxis of human neutrophils (A) and CD4 T lymphocytes (B) in response to LL-37. The cell migration was assessed by chemotaxis assay with the use of uncoated (A) or fibronectin-coated (B) 5 μm membranes. The results are presented as the average C. I. (Mean±SD) of triplicate wells. *p<0.05 when compared with spontaneous cell migration (chemotactic medium alone). Neutrophils and CD4 T cells were used at a concentration of 1×10^6 cells/ml and 5×10^6 cells/ml, respectively. Spontaneous neutrophil and T cell migration (without LL-37) was 30-50 and 30-40 cells/HPF, respectively.
(§7) Human peripheral blood mononuclear cells (PBMC) were isolated from leukopacks (Courtesy of the Transfusion Medicine Department, NIH Clinic Center, Bethesda, MD) by routine Ficoll-Hypaque density gradient centrifugation. […]
as §5

CCR2 = target: T3, CCR2 (Homo sapiens, UniProt P41597); experiment: Examination of HEK293 cells stably transfected to express CCR2; assay type: cell-based
T3 construct: expressed in transfected cells
T3 sequence (P41597 whole entry): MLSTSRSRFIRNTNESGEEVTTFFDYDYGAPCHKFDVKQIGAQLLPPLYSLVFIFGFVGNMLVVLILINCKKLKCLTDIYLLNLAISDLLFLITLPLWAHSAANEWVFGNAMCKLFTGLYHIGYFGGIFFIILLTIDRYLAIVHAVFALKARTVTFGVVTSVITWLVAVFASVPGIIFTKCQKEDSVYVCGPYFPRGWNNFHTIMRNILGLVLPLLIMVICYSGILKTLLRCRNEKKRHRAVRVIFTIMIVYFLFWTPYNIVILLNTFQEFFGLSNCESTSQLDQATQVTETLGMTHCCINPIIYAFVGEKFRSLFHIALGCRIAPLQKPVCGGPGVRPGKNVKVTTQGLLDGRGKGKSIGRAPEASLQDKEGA
Source text: To mediate its chemotactic effect on monocytes, LL-37 must use a chemotactic receptor expressed by monocytes, but not by monocyte-derived immature dendritic cells.

immature dendritic cells [5] = experiment: Chemotaxis of monocyte-derived immature dendritic cells; assay type: cell-based, human; conditions: monocytes differentiated into immature dendritic cells
[6] = tested on: human peripheral blood neutrophils; experiment: Neutrophil chemotaxis assay; assay type: cell-based
Method: as §6, §7, §5

[7] = tested on: human peripheral blood monocytes; experiment: Ca2+ mobilization assay in monocytes (Fura-2); assay type: cell-based; set-up: Ca2+ flux in freshly isolated monocytes at single concentration: dose or concentration left out as unconfirmed
Source text: as §1
Monocytes or FPRL1/293 cells (10^7 cells/ml in RPMI 1640 containing 10% FBS) were loaded by incubating with 5 μM Fura-2 (Molecular Probe) at 24_C for 30 minutes in the dark. Subsequently, the loaded cells were washed with and resuspended (10^6 cells/ml) in saline buffer (138 mM NaCl, 6 mM KC1, 1 mM CaCl2, 10 mM HEPES, 5 mM glucose, and 1% BSA, pH 7.4). Each 2 ml of loaded cells suspension was then transferred into a quartz cuvette, which was placed in a luminescence spectrometer LS50 B (Perkin-Elmer Limited, Beaconsfield, U.K). Ca^2+mobilization of the cells in response to chemotactic factors was measured by recording the ratio of fluorescence emitted at 510 nm after sequential excitation at 340 nm and 380 nm.

immature dendritic cells [8] = experiment: Ca2+ mobilization in monocyte-derived immature dendritic cells; assay type: cell-based, human; conditions: monocytes differentiated into immature dendritic cells
[9] = target: T4, FPRL1 (HEK293 cells stably transfected with FPRL1) (Homo sapiens, UniProt P25090); experiment: Chemotaxis of FPRL1/293 cells; assay type: cell-based; conditions: FIG. 3A
T4 construct: expressed in transfected cells; gift of P. M. Murphy and J. L. Gao (NIAID, NIH)
T4 sequence (P25090 1-351): T1 sequence (P25090 1-351)
Method: as §3, §4, §5

parental HEK293 cells = experiment: Chemotaxis of parental HEK293 cells; assay type: cell-based, human; conditions: FIG. 3A
Method: as §3, §2

LL-37: 37-residue mature antimicrobial peptide cleaved from hCAP18, human cathelicidin; synthesized by solid-phase Fmoc chemistry
Antimicrobial activity in presence of serum [1]: completely block
Concentration damaging mammalian cells (cytocidal effect) (mammalian cells): above 5×10^−5 M
Ca2+ flux in FPRL1/293 cells (FPRL1 (FPRL1/293 cells)): induced Ca^2+flux in a dose-dependent manner
Ca2+ flux in ETFR cells [2]: not in ETFR cells
LL-37-induced chemotaxis of monocytes in presence of serum ([3]; 10% human AB serum, FIG. 2B): not significantly inhibited
Migrated monocytes (checkerboard analysis) ([3]; LL-37 lower wells 0 μM, upper wells 1 μM): 45 ± 6 No./HPF
Migrated monocytes (checkerboard analysis) ([3]; LL-37 lower wells 0 μM, upper wells 10 μM): 44 ± 7 No./HPF
Migrated monocytes (checkerboard analysis) ([3]; LL-37 lower wells 1 μM, upper wells 0 μM): 135 ± 15** No./HPF
Migrated monocytes (checkerboard analysis) ([3]; LL-37 lower wells 1 μM, upper wells 1 μM): 50 ± 8 No./HPF
Migrated monocytes (checkerboard analysis) ([3]; LL-37 lower wells 1 μM, upper wells 10 μM): 40 ± 6 No./HPF
Migrated monocytes (checkerboard analysis) ([3]; LL-37 lower wells 10 μM, upper wells 0 μM): 495 ± 29** No./HPF
Migrated monocytes (checkerboard analysis) ([3]; LL-37 lower wells 10 μM, upper wells 1 μM): 265 ± 5** No./HPF
Migrated monocytes (checkerboard analysis) ([3]; LL-37 lower wells 10 μM, upper wells 10 μM): 95 ± 2* No./HPF
Optimal concentration for induction of monocyte migration ([3]; dose-dependent, FIG. 1A): 10^−5 M
Migration of ETFR cells [4]: did not respond
Optimal concentration to chemoattract human leukocytes (CD4 T cells) (human CD4 T cells; FIG. 4): 10^−5 M
Migration of CD4 T cells (human CD4 T cells; FIG. 4B): induced dose-dependent migration
CCR2 as a receptor (CCR2-transfected HEK293 cells) (CCR2): CCR2 was not a receptor
Chemotaxis response of immature dendritic cells (immature dendritic cells [5]): could not respond
Optimal concentration to chemoattract human leukocytes (neutrophils) ([6]; FIG. 4): 10^−5 M
Migration of purified neutrophils ([6]; FIG. 4A): induced dose-dependent migration
Induction of Ca2+ flux in monocytes ([7]; FIG. 1B): dose-dependently induced Ca^2+ flux
Desensitization of Su peptide-induced Ca2+ flux in monocytes ([7]; Su peptide after LL-37 at 10^−5 M, FIG. 3C b): almost completely desensitized
Ca2+ flux in freshly isolated monocytes at single concentration ([7]; peptide, FIG. 3C a and c): induced Ca^2+ flux to a similar extent
Ca2+ mobilization response of immature dendritic cells (immature dendritic cells [8]): could not respond
Migration of FPRL1/293 cells [9]: migrated in response to LL-37 in a dose-dependent manner
Migration of parental HEK293 cells (parental HEK293 cells): did not respond
